≈ marks a conversion by molar mass, not a printed value.
What was measured:
Solubility test (HPLC) = format: physicochemical; settings: aqueous buffer, thermodynamic from solid, dissolution test solution 2 (pH 6.8), 37°C, read-out: water solubility
Description: The prepared NRG SD (500 mg; equivalent to 50 mg NRG) was added to 2.5 mL dissolution test solution 2. The mixture was shaken vigorously at 37°C for 30 min and centrifuged ([15], [17]). The supernatant was then passed through a 0.2-μm filter and subjected to high-performance liquid chromatography (HPLC) analysis. The NRG concentration was determined using an HPLC system fitted with the LC-20AD pump and the SPD-M20 detector (Shimadzu Corp., Kyoto, Japan) ([15]). A reverse-phase column (CAPCELL PAK C18 MGII; 4.6 mm × 100 mm; 5 μm; Shiseido Co., Ltd., Tokyo, Japan) was operated at 40°C. The mobile phase consisted of a methanol-water (45:55, v/v) mixture with 0.05% (v/v) phosphoric acid, and it was ultrasonically degassed before use. The flow rate was set at 1 mL/min, and the detection wavelength was set at 289 nm. The sample injection volume was 10 μL. The HPLC was calibrated using standard methanol-water (50:50, v/v) NRG solutions in the concentration range of 0.125–40 μg/mL.

[1] = Dissolution test, Japanese Pharmacopoeia paddle method; format: physicochemical; settings: test solution 1 (pH 1.2), after 120 min
Description: The dissolution test was conducted using the paddle method described in the Japanese Pharmacopoeia ([26]). First, 900 mL dissolution test solution 1 or 2 was placed in the dissolution tester vessel and then 30 mg of crystalline NRG, 300 mg of PM, and 300 mg of SD were added to it. The temperature (37°C) and stirring rate (100 rpm) were maintained during the experiment. Samples were collected 2, 5, 10, 20, 30, 45, 60, 90, and 120 min after sample addition. The solutions were passed through 0.2-μm filters, and the filtrates were subjected to HPLC analysis.

[2] = Pharmacokinetics after oral administration; format: in vivo, rat; settings: rats, equivalent to 100 mg/kg NRG
Description: Each solution was suspended in ion-exchange water immediately prior to administration. […] The blood was stored in heparinized hematocrit tubes, and the plasma was isolated by centrifugation. […] The samples were incubated at 37°C overnight and extracted using the same method that was employed for those containing the unchanged NRG. LC-MS/MS analysis was performed using an ACQUITY UPLC system (Waters Corp., Milford, MA, United States) fitted with a cooling autosampler and a column oven with temperature control. Mass spectrometry was performed using a Waters Xevo TQ-S tandem quadrupole mass spectrometer (QQ-MS; Waters Corp.). Chromatographic separation was performed on an ACQUITY UPLC BEH C18 1.7 μm column (50 mm × 2.1 mm; Waters Corp.). […] Positive electrospray ionization was used to generate the parental ions. Multiple reaction monitoring, using precursor → product ion transitions of m/z 273.04 → 152.97 and m/z 255.10 → 198.99, was used to quantify NRG and daidzein (internal standard), respectively.

[3] = Pharmacokinetics after intravenous administration of serum containing unchanged NRG and NRG metabolites; format: in vivo, rat; settings: rats
Description: The same amount of NRG SD was intragastrically administered 5 min later. Blood was collected from the heart under isoflurane anesthesia 35 min after the first administration and stored at 4°C for several hours. Serum was then isolated by centrifugation and analyzed by liquid chromatography-tandem mass spectrometry (LC-MS/MS). […] Serum containing the unchanged NRG and NRG metabolites was administered via the tail vein at a dose of 500 μL/rat. […] The plasma was isolated by centrifugation. […] The mixture was centrifuged at 4°C, and 25 μL supernatant was collected and mixed with 75 μL of 30% (v/v) acetonitrile. […] The samples were incubated at 37°C overnight and extracted using the same method that was employed for those containing the unchanged NRG. LC-MS/MS analysis was performed using an ACQUITY UPLC system (Waters Corp., Milford, MA, United States) fitted with a cooling autosampler and a column oven with temperature control. Mass spectrometry was performed using a Waters Xevo TQ-S tandem quadrupole mass spectrometer (QQ-MS; Waters Corp.). Chromatographic separation was performed on an ACQUITY UPLC BEH C18 1.7 μm column (50 mm × 2.1 mm; Waters Corp.). […] The flow rate was set at 0.5 mL/min. The sample injection volume was 5 μL. […]. Positive electrospray ionization was used to generate the parental ions. Multiple reaction monitoring, using precursor → product ion transitions of m/z 273.04 → 152.97 and m/z 255.10 → 198.99, was used to quantify NRG and daidzein (internal standard), respectively.

[4] = tested on: acetic acid-induced writhing in rats; experiment: Acetic acid-induced writhing test; format: in vivo, rat; settings: oral 5 min before i.p. acetic acid, counted over 25 min, crystalline NRG 100 mg/kg, NRG SD 30 or 100 mg/kg
Description: The acetic acid-induced writhing test was performed according to the method of Pinho-Ribeiro et al. ([8]) with modifications. Rats aged 5–7 weeks were fasted for 16 h and divided into four groups of eight animals per group. The first group was intragastrically administered 10 mL/kg saline as a control. The second group was intragastrically administered crystalline NRG at 100 mg/kg BW. The third and fourth groups were intragastrically administered NRG SD equivalent to 30 mg/kg and 100 mg/kg BW NRG, respectively. After 5 min, each rat was intraperitoneally injected with 10 mL/kg of 0.8% (v/v) acetic acid in saline solution. Visceral pain intensity was quantified by enumerating the abdominal writhing within 0–25 min after the stimulus. The writhing response was characterized by the contraction of abdominal muscles and stretching of the hind limbs.

[5] = parameters: method as in PMID 17047689; settings: humans; cited from earlier work

O=C1C[C@@H](c2ccc(O)cc2)Oc2cc(O)cc(O)c21 [NRG, Naringenin]
solubility at 30 min (Solubility test (HPLC)): 70 µg/mL (≈ 257 µM)
dissolved NRG [1]: 40%
AUC(0-t) ([2]; rat, plasma, po, 100 mg/kg, unchanged NRG in plasma, read-out: AUC0–1 h): 30 ± 10 ng·h/mL
AUC(0-t) ([2]; rat, plasma, po, 100 mg/kg, unchanged NRG in plasma, read-out: AUC0–t): 740 ± 240 ng·h/mL
bioavailability ([2]; rat, plasma, po, 100 mg/kg, unchanged NRG, read-out: F, absolute bioavailability): ~0.5%
AUC(0-inf) ([2]; rat, unchanged NRG in plasma): 740 ± 240 ng·h/mL
Cmax ([2]; rat, unchanged NRG in plasma): 130 ± 10 ng/mL
Tmax ([2]; rat, unchanged NRG in plasma): 4 ± 1.26 h
F, absolute bioavailability ([2]; unchanged NRG): 0.52 ± 0.17%
clearance ([3]; plasma, iv, i.v., serum 500 μL/rat, two-compartment model, read-out: CL, total body clearance (converted)): 2.67 mL/min
Vd ([3]; plasma, iv, i.v., serum 500 μL/rat, two-compartment model, read-out: Vd, volume of distribution): 0.19 ± 0.08 L/kg
k el ([3]; plasma, iv, i.v., serum 500 μL/rat, two-compartment model, read-out: ke, elimination rate constant (converted)): 0.00509 s⁻¹
half-life ([3]; plasma, iv, i.v., serum 500 μL/rat, two-compartment model, read-out: t1/2, elimination half-life time (converted)): 0.99 ± 0.33 h
AUC(0-t) ([3]; plasma, iv, serum 500 μL/rat, two-compartment model): 120 ± 20 ng·h/mL
AUC(0-inf) ([3]; plasma, iv, serum with 34.8 μg/mL unchanged NRG and 134.5 μg/mL NRG metabolites, 500 μL/rat, two-compartment model): 130 ± 20 ng·h/mL
distribution volume as share of the body weight ([3]; i.v.): ~20%
number of writhings compared to the control [4]: significantly decreased
cumulative urinary excretion rate relative to the oral NRG dose [5]: ~5.8%

— publication PMC9093646, “Physicochemical and Biochemical Evaluation of Amorphous Solid Dispersion of Naringenin Prepared Using Hot-Melt Extrusion” (Frontiers in Nutrition, 2022)
